# Paper PMC12621043, “Un-LOK-ing a New Approach for Conformational Selective Targeting of STK10 (LOK)” (ACS Medicinal Chemistry Letters, 2025)
# How the values were obtained:
# Assay in all cases: DSF Tm panel
# Format in all cases: binding
# Settings in all cases: 10 μM compound
# CSNK1DA = target: T1, CSNK1DA (Homo sapiens, UniProt P48730)
# T1 construct: purchased in-house DSF kinase panel (SGC-style construct names; the trailing letter is the construct ID)
# T1 sequence (P48730 1-294): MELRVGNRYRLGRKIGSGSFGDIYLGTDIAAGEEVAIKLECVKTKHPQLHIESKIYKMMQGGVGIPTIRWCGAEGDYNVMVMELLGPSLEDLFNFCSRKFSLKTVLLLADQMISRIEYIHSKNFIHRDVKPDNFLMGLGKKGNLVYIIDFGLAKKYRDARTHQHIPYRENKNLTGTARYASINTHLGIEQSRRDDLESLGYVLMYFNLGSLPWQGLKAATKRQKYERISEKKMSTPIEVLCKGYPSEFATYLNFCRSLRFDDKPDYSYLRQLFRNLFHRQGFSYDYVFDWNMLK
# MAP3K5A = target: T2, MAP3K5A (Homo sapiens, UniProt Q99683)
# T2 construct: purchased in-house DSF kinase panel (SGC-style construct names; the trailing letter is the construct ID)
# MELKA = target: T3, MELKA (Homo sapiens, UniProt Q14680)
# T3 construct: purchased in-house DSF kinase panel (SGC-style construct names; the trailing letter is the construct ID)
# ULK1A = target: T4, ULK1A (Homo sapiens, UniProt O75385)
# T4 construct: purchased in-house DSF kinase panel (SGC-style construct names; the trailing letter is the construct ID)
# T4 sequence (O75385 1-283): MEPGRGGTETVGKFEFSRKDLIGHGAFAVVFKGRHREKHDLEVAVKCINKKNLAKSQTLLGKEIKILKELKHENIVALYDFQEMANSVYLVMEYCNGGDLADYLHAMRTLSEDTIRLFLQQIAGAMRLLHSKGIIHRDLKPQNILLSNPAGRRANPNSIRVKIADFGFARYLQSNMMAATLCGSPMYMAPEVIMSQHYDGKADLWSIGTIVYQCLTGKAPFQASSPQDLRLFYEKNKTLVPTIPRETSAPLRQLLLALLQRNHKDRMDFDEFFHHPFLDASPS
# Experimental: (§1) The synthesized urea-based derivatives were evaluated in a panel of kinases by differential scanning fluorescence (DSF) to investigate their selectivity profile. A positive ΔT m in the DSF assay indicates stabilization of the protein upon ligand binding in comparison to its apo state, with higher thermal shifts generally correlating with stronger binding. For this purpose, we used our internal kinase selectivity panel (∼90 kinases) along with staurosporine as a positive control. […] This was also reflected in the overall low selectivity score (S) throughout the series, which is determined by the ratio between the number of kinases that are stabilized above 5 °C and the total number of kinases tested (Figure ). Motivated by these findings, we further validated the entire series by orthogonal binding and activity assays to determine the in vitro and cellular potency and selectivity of the developed series in comparison to the selected reference compounds. […]
# (§2) was performed as previously described.[1,2] Briefly, recombinant protein kinase domains at a concentration of 2 μM were mixed with 10 μM compound in a buffer containing 20 mM HEPES, […]
# (§3) probe (1 µl per mL). Subsequently, temperature-dependent protein unfolding profiles were […]
# (§4) emission filters were set to 465 nm and 590 nm, respectively. The temperature was raised with a step rate of 3 °C per minute. […]
# (§5) inflection point of the transition curve. […]
# (§6) previously.[3] In brief, STK10, STK3, STK4 and SLK were obtained as plasmids cloned in […]
# (§7) Plasmids were transfected into
# (§8) KD concentration taken from TracerDB (tracerdb.org)[4] were pipetted into white 384-well
# FGFR1B = target: T5, FGFR1B (Homo sapiens, UniProt P11362)
# T5 construct: purchased in-house DSF kinase panel (SGC-style construct names; the trailing letter is the construct ID)
# Experimental: as §1, §2, §3, §4, §5, §6, §7, §8
# PIM3A = target: T6, PIM3A (Homo sapiens, UniProt Q86V86)
# T6 construct: purchased in-house DSF kinase panel (SGC-style construct names; the trailing letter is the construct ID)
# Experimental: as §1, §2, §3, §4, §5, §6, §7, §8
# SRCA = target: T7, SRCA (Homo sapiens, UniProt P12931)
# T7 construct: purchased in-house DSF kinase panel (SGC-style construct names; the trailing letter is the construct ID)
# Experimental: as §1, §2, §3, §4, §5, §6, §7, §8
# MAP2K4A = target: T8, MAP2K4A (Homo sapiens, UniProt P45985)
# T8 construct: purchased in-house DSF kinase panel (SGC-style construct names; the trailing letter is the construct ID)
# T8 sequence (P45985 102-367): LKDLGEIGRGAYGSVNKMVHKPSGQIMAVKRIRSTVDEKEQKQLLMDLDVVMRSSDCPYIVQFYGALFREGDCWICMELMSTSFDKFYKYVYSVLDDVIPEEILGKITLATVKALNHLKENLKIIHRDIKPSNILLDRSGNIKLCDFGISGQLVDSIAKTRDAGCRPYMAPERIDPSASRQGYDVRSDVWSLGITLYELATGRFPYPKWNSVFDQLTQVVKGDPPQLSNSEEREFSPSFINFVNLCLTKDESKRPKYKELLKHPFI
# Experimental: as §1, §2, §3, §4, §5, §6, §7, §8
# CAMK1DA = target: T9, CAMK1DA (Homo sapiens, UniProt Q8IU85)
# T9 construct: purchased in-house DSF kinase panel (SGC-style construct names; the trailing letter is the construct ID)
# Experimental: as §1, §2, §3, §4, §5, §6, §7, §8
# EPHA5A = target: T10, EPHA5A (Homo sapiens, UniProt P54756)
# T10 construct: purchased in-house DSF kinase panel (SGC-style construct names; the trailing letter is the construct ID)
# T10 sequence (P54756 653-939): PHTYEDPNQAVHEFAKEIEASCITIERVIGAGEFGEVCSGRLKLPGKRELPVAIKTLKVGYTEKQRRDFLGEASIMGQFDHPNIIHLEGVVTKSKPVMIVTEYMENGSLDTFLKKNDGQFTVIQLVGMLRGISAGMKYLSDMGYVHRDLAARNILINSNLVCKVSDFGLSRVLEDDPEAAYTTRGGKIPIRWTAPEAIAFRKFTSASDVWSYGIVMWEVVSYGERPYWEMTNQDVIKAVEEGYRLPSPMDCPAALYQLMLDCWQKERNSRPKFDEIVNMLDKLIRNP
# Experimental: as §1, §2, §3, §4, §5, §6, §7, §8
# BRD4 (BRD4A) = target: T11, BRD4 (BRD4A) (Homo sapiens, UniProt O60885)
# T11 construct: purchased in-house DSF kinase panel (SGC-style construct names; the trailing letter is the construct ID)
# Experimental: as §1, §2, §3, §4, §5, §6, §7, §8
# CLK3A = target: T12, CLK3A (Homo sapiens, UniProt P49761)
# T12 construct: purchased in-house DSF kinase panel (SGC-style construct names; the trailing letter is the construct ID)
# Experimental: as §1, §2, §3, §4, §5, §6, §7, §8
# STK6A = target: T13, STK6A (Homo sapiens, UniProt O14965)
# T13 construct: purchased in-house DSF kinase panel (SGC-style construct names; the trailing letter is the construct ID)
# T13 sequence (O14965 122-403): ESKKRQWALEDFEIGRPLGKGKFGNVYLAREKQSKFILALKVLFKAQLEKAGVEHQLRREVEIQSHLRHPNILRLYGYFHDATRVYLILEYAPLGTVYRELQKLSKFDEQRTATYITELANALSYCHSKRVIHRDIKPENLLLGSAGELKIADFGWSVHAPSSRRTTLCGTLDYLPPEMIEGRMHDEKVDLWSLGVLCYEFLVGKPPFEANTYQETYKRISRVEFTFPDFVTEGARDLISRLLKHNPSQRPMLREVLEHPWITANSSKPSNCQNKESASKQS
# Experimental: as §1, §2, §3, §4, §5, §6, §7, §8
# GSK3BB = target: T14, GSK3BB (Homo sapiens, UniProt P49841)
# T14 construct: purchased in-house DSF kinase panel (SGC-style construct names; the trailing letter is the construct ID)
# Experimental: as §1, §2, §3, §4, §5, §6, §7, §8
# CHEK2A = target: T15, CHEK2A (Homo sapiens, UniProt O96017)
# T15 construct: purchased in-house DSF kinase panel (SGC-style construct names; the trailing letter is the construct ID)
# Experimental: as §1, §2, §3, §4, §5, §6, §7, §8
# PAK1A = target: T16, PAK1A (Homo sapiens, UniProt Q13153)
# T16 construct: purchased in-house DSF kinase panel (SGC-style construct names; the trailing letter is the construct ID)
# Experimental: as §1, §2, §3, §4, §5, §6, §7, §8
# MAP2K1A = target: T17, MAP2K1A (Homo sapiens, UniProt Q02750)
# T17 construct: purchased in-house DSF kinase panel (SGC-style construct names; the trailing letter is the construct ID)
# Experimental: as §1, §2, §3, §4, §5, §6, §7, §8
# T15 sequence (O96017 210-531): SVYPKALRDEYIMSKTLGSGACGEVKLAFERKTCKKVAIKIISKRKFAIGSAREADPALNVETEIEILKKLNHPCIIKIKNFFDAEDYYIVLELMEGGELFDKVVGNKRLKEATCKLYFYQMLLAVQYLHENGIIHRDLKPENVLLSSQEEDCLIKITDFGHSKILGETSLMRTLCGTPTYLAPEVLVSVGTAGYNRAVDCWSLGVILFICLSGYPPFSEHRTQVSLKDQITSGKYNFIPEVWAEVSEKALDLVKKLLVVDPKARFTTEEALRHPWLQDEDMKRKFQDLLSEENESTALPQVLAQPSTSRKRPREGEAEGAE
# T14 sequence (P49841 35-386): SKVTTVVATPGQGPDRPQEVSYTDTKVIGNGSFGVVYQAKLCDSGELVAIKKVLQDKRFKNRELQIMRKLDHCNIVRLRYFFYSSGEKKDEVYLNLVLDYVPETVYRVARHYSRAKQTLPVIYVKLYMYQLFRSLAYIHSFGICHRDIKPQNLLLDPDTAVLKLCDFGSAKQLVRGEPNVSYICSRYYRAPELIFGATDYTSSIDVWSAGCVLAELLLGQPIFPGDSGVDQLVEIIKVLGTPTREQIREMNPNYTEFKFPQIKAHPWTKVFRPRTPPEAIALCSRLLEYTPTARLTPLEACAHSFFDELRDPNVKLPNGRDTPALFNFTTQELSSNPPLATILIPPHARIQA
# T3 sequence (Q14680 1-340): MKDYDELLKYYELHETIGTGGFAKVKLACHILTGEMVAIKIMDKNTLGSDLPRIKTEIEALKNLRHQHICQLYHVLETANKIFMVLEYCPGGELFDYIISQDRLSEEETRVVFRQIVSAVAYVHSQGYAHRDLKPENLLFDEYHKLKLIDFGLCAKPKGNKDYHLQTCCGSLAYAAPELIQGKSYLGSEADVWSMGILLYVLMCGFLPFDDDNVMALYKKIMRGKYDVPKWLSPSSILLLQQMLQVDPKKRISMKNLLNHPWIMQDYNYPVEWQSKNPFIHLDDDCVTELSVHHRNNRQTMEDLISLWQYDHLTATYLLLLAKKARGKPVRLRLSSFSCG
# T9 sequence (Q8IU85 whole entry): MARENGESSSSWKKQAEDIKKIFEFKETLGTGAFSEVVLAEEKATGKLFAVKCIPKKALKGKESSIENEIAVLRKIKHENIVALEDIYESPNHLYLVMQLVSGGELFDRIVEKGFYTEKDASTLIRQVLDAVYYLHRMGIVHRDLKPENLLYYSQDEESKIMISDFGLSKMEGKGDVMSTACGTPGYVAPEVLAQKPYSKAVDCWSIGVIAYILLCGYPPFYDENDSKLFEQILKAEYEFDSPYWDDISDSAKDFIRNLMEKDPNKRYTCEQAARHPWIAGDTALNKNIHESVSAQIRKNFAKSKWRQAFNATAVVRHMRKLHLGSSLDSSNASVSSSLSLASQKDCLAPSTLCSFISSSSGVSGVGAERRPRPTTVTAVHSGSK
# T7 sequence (P12931 254-536): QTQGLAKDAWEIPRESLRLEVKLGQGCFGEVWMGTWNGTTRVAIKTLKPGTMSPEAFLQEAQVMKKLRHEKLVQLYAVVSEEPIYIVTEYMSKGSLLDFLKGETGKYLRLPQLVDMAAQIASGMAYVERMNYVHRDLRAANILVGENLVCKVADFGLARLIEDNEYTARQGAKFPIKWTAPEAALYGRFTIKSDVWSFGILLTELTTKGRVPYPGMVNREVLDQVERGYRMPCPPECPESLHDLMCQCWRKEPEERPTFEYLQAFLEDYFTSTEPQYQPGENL
# T17 sequence (Q02750 68-361): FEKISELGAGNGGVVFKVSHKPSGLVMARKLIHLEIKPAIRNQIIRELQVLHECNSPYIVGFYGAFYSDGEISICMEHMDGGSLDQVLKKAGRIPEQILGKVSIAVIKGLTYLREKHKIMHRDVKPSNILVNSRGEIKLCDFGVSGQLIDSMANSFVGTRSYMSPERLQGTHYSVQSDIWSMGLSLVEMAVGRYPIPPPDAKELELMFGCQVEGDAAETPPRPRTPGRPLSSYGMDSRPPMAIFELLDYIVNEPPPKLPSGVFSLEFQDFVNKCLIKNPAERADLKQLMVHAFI
# T16 sequence (Q13153 249-545): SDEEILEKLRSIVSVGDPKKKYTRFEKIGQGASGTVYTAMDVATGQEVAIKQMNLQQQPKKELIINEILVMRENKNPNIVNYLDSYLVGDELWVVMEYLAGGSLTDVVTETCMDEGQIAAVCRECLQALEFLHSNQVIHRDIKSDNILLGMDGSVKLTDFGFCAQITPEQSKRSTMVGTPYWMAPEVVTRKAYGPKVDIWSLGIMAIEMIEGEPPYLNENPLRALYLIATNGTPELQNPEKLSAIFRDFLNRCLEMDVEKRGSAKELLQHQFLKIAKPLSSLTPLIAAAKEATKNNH
# T2 sequence (Q99683 659-951): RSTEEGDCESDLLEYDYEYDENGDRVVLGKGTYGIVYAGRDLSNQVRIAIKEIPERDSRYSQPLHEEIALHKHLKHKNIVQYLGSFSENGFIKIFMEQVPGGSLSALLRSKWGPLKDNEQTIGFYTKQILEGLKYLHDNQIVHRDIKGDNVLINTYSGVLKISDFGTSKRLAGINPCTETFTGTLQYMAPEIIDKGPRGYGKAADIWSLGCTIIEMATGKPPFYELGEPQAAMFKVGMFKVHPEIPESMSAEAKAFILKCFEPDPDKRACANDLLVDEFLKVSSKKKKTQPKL
# T5 sequence (P11362 456-767): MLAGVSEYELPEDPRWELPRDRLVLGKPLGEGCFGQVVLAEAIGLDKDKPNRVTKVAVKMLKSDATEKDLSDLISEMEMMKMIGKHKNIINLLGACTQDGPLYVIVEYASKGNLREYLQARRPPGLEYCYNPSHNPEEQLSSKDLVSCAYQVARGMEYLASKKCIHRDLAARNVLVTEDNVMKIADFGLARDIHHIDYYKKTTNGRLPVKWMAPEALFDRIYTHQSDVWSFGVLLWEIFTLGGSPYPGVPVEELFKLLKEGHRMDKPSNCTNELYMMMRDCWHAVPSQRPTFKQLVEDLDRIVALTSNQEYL
# T12 sequence (P49761 127-484): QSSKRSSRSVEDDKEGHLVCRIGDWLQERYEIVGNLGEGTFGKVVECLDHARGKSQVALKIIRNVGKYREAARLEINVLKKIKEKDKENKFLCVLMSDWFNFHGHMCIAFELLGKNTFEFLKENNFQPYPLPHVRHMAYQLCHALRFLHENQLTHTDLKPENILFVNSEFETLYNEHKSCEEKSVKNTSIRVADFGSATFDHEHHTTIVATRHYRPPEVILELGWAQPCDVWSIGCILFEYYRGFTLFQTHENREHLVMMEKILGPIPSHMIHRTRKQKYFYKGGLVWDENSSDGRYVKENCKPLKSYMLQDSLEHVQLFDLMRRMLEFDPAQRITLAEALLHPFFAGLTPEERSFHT
SMILES,ΔTm at 10 µM (CSNK1DA),ΔTm at 10 µM (MAP3K5A),ΔTm at 10 µM (MELKA),ΔTm at 10 µM (ULK1A),ΔTm at 10 µM (FGFR1B),ΔTm at 10 µM (PIM3A),ΔTm at 10 µM (SRCA),ΔTm at 10 µM (MAP2K4A),ΔTm at 10 µM (CAMK1DA),ΔTm at 10 µM (EPHA5A),ΔTm at 10 µM (BRD4 (BRD4A)),ΔTm at 10 µM (CLK3A),ΔTm at 10 µM (STK6A),ΔTm at 10 µM (GSK3BB),ΔTm at 10 µM (CHEK2A),ΔTm at 10 µM (PAK1A),ΔTm at 10 µM (MAP2K1A)
O=C(NCc1ccccc1)Nc1ccc2cc1OCCOCCNc1ccn3ncc-2c3n1 [compound 16],0.7 °C,2 °C,2 °C,0.6 °C,2.4 °C,2.4 °C,2.5 °C,5.2 °C,0 °C,0.1 °C,0.7 °C,0.3 °C,7.5 °C,1.1 °C,6.5 °C,0.1 °C,-0.1 °C
O=C(NCc1ccccc1Cl)Nc1ccc2cc1OCCOCCNc1ccn3ncc-2c3n1 [compound 17],0.6 °C,1 °C,2.4 °C,0.3 °C,0.6 °C,2.4 °C,1.8 °C,5 °C,-0.3 °C,0.1 °C,1.3 °C,0.1 °C,6.7 °C,1 °C,5.3 °C,0.6 °C,-0.2 °C
O=C(NCc1cccc(Cl)c1)Nc1ccc2cc1OCCOCCNc1ccn3ncc-2c3n1 [compound 18],0.4 °C,1.6 °C,1.5 °C,0.3 °C,2 °C,3 °C,2.6 °C,4.1 °C,0.4 °C,0.4 °C,1.5 °C,0.3 °C,7.3 °C,0 °C,3.6 °C,0.7 °C,0.2 °C
O=C(NCc1ccc(Cl)cc1)Nc1ccc2cc1OCCOCCNc1ccn3ncc-2c3n1 [compound 19],0.4 °C,1.4 °C,1.5 °C,0.4 °C,1.5 °C,2.4 °C,2.1 °C,5.7 °C,0.6 °C,0.3 °C,1 °C,0.4 °C,7.1 °C,0.6 °C,4.5 °C,0.9 °C,0.1 °C
O=C(NCc1ccc(Cl)cc1Cl)Nc1ccc2cc1OCCOCCNc1ccn3ncc-2c3n1 [compound 20],0.4 °C,2.2 °C,0.9 °C,0.6 °C,0.9 °C,3.3 °C,1.2 °C,3.9 °C,1 °C,0.7 °C,1.8 °C,0.3 °C,7.4 °C,0.6 °C,3.6 °C,2.5 °C,0.8 °C
O=C(NCc1ccc(Cl)cc1F)Nc1ccc2cc1OCCOCCNc1ccn3ncc-2c3n1 [compound 21],0 °C,2.7 °C,2.4 °C,0.2 °C,1.1 °C,3.9 °C,2.6 °C,5.4 °C,0.8 °C,0.7 °C,2 °C,0.6 °C,6.9 °C,0.2 °C,5 °C,1 °C,1.2 °C
Cc1cc(Cl)ccc1CNC(=O)Nc1ccc2cc1OCCOCCNc1ccn3ncc-2c3n1 [compound 23],1.2 °C,1 °C,1.1 °C,0.3 °C,1.1 °C,2.2 °C,1.5 °C,4.8 °C,2.1 °C,1 °C,2 °C,0.4 °C,5.6 °C,0.4 °C,5.7 °C,2 °C,0.6 °C
Cc1cc(Br)ccc1CNC(=O)Nc1ccc2cc1OCCOCCNc1ccn3ncc-2c3n1 [compound 24],0.2 °C,1.4 °C,0 °C,0 °C,1.2 °C,2.8 °C,1.7 °C,3.2 °C,1.3 °C,1.4 °C,1.4 °C,0.2 °C,5.4 °C,-0.2 °C,8.6 °C,1.1 °C,0.6 °C
Cc1ccc(F)cc1CNC(=O)Nc1ccc2cc1OCCOCCNc1ccn3ncc-2c3n1 [compound 26],-0.1 °C,0.9 °C,1.1 °C,0.1 °C,1.9 °C,4 °C,2.2 °C,3.2 °C,1 °C,1.1 °C,0.5 °C,0.1 °C,6.4 °C,0.5 °C,7.2 °C,0.7 °C,0.3 °C
O=C(NCc1ccccc1C(F)(F)F)Nc1ccc2cc1OCCOCCNc1ccn3ncc-2c3n1 [compound 27],-0.5 °C,1.4 °C,0.4 °C,0.4 °C,1.3 °C,4.6 °C,2.5 °C,5.1 °C,1.7 °C,1.6 °C,1.8 °C,0.2 °C,7 °C,-0.2 °C,9.9 °C,1.5 °C,0.7 °C
